Kd data for 14 compounds are collected here from ChEMBL document CHEMBL3991601, “The target landscape of clinical kinase drugs” (Science, 2017).

The target in assay [1] is T1, STE20-related kinase adapter protein alpha (Homo sapiens, UniProt Q7RTN6).
T1 sequence (Q7RTN6 whole entry): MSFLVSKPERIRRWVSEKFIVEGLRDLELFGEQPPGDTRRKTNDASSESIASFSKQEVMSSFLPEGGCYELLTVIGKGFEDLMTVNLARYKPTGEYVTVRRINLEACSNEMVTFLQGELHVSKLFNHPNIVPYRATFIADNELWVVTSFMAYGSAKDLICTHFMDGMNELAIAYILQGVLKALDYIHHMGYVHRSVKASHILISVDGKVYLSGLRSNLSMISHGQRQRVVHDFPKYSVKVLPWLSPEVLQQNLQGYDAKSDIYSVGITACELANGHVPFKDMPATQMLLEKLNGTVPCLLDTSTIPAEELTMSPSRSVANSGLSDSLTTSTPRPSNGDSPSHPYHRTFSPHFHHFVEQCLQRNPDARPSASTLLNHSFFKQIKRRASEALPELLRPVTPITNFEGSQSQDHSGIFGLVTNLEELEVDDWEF

In assay [2] the target is T2, Serine/threonine-protein kinase ICK (Homo sapiens, UniProt Q9UPZ9).
T2 sequence (Q9UPZ9 whole entry): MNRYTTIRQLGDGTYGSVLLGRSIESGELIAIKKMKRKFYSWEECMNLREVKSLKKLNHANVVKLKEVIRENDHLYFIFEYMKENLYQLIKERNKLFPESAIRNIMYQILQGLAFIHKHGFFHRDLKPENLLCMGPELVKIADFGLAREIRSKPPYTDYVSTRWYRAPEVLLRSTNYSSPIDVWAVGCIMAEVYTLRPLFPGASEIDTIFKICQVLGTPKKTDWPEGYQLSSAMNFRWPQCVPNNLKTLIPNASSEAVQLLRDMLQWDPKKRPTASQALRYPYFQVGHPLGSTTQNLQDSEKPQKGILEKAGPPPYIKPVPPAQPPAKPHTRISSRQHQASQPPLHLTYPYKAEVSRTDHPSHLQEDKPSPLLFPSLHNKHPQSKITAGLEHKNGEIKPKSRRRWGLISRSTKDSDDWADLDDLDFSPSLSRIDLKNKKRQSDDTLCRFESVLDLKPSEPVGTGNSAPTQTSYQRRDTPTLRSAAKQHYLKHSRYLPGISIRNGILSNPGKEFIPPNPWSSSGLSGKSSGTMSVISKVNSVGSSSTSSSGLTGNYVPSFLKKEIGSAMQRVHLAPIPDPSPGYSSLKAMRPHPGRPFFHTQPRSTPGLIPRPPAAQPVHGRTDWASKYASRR

Assay [3] has as its target Tyrosine-protein kinase BTK (Homo sapiens, UniProt Q06187).
For assay [4], the target named is Cyclin-dependent kinase 4 (Homo sapiens, UniProt P11802).
Sequence of Cyclin-dependent kinase 4 (P11802 whole entry): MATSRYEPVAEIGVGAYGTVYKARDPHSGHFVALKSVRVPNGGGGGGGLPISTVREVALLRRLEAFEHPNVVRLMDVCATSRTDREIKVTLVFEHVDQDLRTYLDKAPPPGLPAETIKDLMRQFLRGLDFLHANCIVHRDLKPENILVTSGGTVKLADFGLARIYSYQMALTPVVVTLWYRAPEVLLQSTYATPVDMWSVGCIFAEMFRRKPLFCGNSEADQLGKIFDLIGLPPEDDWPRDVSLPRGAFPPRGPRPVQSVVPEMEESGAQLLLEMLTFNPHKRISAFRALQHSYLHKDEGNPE
For assay [5], the target named is T3, Adenine phosphoribosyltransferase (Homo sapiens, UniProt P07741).
T3 sequence (P07741 whole entry): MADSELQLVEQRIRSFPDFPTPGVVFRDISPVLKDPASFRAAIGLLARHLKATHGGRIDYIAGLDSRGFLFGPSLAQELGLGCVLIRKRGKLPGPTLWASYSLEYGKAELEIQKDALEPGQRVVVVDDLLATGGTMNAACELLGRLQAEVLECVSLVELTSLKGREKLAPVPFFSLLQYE

Assay [6] addresses T4, Succinate--CoA ligase [ADP-forming] subunit beta, mitochondrial (Homo sapiens, UniProt Q9P2R7).
T4 sequence (Q9P2R7 whole entry): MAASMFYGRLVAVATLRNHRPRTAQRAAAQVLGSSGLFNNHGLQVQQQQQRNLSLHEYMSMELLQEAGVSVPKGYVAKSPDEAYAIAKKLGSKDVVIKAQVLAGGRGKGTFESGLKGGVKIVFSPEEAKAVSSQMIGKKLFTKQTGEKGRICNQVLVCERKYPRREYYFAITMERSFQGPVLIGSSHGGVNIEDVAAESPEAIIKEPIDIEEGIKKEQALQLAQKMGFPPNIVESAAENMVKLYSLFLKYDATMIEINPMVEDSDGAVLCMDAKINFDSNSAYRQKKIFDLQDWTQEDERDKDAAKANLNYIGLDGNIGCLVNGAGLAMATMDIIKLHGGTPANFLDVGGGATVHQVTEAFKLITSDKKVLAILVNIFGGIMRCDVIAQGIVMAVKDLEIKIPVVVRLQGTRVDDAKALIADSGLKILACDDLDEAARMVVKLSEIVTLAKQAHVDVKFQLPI

Assay [7] deals with T5, Acyl-CoA dehydrogenase family member 10 (Homo sapiens, UniProt Q6JQN1).
T5 sequence (Q6JQN1 whole entry): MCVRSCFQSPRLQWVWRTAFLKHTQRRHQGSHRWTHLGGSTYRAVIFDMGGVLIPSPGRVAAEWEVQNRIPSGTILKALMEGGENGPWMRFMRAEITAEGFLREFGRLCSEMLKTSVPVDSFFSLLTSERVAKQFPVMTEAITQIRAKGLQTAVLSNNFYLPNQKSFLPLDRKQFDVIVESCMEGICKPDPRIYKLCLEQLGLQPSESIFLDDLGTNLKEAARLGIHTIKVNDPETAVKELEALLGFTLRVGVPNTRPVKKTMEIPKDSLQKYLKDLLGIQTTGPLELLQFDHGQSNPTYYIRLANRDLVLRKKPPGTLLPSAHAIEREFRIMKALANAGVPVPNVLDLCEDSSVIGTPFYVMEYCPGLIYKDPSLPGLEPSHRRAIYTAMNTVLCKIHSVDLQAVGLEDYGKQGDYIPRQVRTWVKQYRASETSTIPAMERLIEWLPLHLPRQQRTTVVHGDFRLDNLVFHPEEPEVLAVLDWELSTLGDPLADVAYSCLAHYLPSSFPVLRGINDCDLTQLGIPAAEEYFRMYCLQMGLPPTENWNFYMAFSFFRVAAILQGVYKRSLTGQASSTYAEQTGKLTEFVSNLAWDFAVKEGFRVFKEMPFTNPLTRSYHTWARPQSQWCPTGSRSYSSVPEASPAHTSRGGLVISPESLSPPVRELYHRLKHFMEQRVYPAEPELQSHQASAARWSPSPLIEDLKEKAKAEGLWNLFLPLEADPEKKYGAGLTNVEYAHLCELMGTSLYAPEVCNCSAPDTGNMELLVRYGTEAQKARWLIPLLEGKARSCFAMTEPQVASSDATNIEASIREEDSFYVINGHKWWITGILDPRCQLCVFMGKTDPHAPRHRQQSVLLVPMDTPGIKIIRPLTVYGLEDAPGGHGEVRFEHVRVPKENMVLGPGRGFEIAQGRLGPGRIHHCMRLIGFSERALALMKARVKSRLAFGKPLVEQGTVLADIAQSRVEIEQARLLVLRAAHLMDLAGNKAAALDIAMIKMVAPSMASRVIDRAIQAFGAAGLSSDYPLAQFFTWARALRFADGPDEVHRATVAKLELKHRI

Active and inactive are the calls of the source.
Also: in the data inactive means no Kd found up to 30 µM.

Sequence of Tyrosine-protein kinase BTK (Q06187 whole entry): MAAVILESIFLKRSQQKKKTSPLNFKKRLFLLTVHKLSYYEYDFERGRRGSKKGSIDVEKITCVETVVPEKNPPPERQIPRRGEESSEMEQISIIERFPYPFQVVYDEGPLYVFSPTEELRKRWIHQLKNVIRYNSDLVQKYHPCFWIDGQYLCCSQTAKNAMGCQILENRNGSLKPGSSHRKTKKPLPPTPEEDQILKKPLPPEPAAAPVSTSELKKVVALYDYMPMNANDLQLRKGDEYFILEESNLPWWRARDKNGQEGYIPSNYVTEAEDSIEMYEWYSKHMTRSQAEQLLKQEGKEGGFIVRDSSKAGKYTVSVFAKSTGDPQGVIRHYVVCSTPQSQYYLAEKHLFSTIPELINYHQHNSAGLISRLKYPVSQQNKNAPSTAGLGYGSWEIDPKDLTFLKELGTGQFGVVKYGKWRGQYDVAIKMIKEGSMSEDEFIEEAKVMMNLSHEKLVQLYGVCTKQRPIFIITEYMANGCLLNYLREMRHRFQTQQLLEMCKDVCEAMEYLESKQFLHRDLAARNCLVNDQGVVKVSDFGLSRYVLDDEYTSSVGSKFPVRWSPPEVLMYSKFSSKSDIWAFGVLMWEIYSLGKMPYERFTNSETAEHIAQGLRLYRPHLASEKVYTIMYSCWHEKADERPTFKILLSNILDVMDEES

One may read the Kd as the constant that tells how readily two partners part at equilibrium. As for `COCCN1CCN(Cc2ccc(-c3n[nH]c4c3C(=O)c3c(NC(=O)NN5CCOCC5)cccc3-4)cc2)CC1` [RGB-286638], the Kd is > 30 µM (inactive) in assay [1]; 0.008 µM (active) in assay [2]; > 30 µM (inactive) in assay [3]; > 30 µM (inactive) in assay [4]; > 30 µM (inactive) in assay [5]; > 30 µM (inactive) in assay [6]. In addition, the Kd in assay [7] is > 30 µM (inactive).
Turning to `CNC(=O)c1cccc(-c2ccc3c(N4CCOC[C@@H]4C)nc(N4CCOC[C@@H]4C)nc3n2)c1` [VISTUSERTIB], the Kd in assay [1], in assay [2], in assay [3], in assay [4], in assay [5] and in assay [6] was > 30 µM (inactive) throughout. Also, in assay [7], the Kd is > 30 µM (inactive).
`COc1cc2nccc(Oc3ccc(NC(=O)C4(C(=O)Nc5ccc(F)cc5)CC4)cc3)c2cc1OC` [CABOZANTINIB]: the Kd in assay [1], in assay [2], in assay [3], in assay [4], in assay [5] and in assay [6] was > 30 µM (inactive) each time. For the same compound, in assay [7], the Kd was > 30 µM (inactive).
On to `COc1cccc2cc(-c3nc([C@H]4CC[C@H](C(=O)O)CC4)n4ncnc(N)c34)[nH]c12` [OSI-027], for which the Kd in assay [1], in assay [2], in assay [3], in assay [4], in assay [5] and in assay [6] was > 30 µM (inactive) each time. Moreover, the Kd in assay [7] was > 30 µM (inactive).
As to `COc1ccc(-c2ccc3ncc4c(c3c2)n(-c2ccc(N3CCNCC3)c(C(F)(F)F)c2)c(=O)n4C)cn1` [BGT-226 FREE BASE], the Kd in assay [1], in assay [2], in assay [3], in assay [4], in assay [5] and in assay [6] was > 30 µM (inactive) each time. For the same compound, in assay [7], the Kd was > 30 µM (inactive).
`CNC(=O)c1ccc(Nc2ncc(C(F)(F)F)c(NCc3nccnc3N(C)S(C)(=O)=O)n2)cc1` [DEFACTINIB]: the Kd in assay [1], in assay [2], in assay [3], in assay [4], in assay [5] and in assay [6] was > 30 µM (inactive) throughout. For the same compound, the Kd in assay [7] is > 30 µM (inactive).
Consider `Cn1cc(-c2[nH]c3cc(NC(=O)[C@H](N)C4CCCCC4)cc4c3c2C=NNC4=O)cn1`, for which the Kd in assay [1] is > 30 µM (inactive); in assay [2] it was > 30 µM (inactive); in assay [3], 2.84 µM (active); in assay [4], > 30 µM (inactive); in assay [5] it was > 30 µM (inactive); in assay [6], > 30 µM (inactive). In assay [7], the Kd is > 30 µM (inactive).
As to `C[C@@H]1COC(Nc2ccc3ncnc(Nc4ccc(OCc5nccs5)c(Cl)c4)c3c2)=N1` [VARLITINIB], the Kd in assay [1], in assay [2], in assay [3], in assay [4], in assay [5] and in assay [6] was > 30 µM (inactive) each time.
Regarding `CCc1cc2c(cc1N1CCC(N3CCOCC3)CC1)C(C)(C)c1[nH]c3cc(C#N)ccc3c1C2=O` [ALECTINIB], the Kd in assay [1], in assay [2], in assay [3], in assay [4], in assay [5] and in assay [6] was > 30 µM (inactive) in each case. Also, the Kd in assay [7] is > 30 µM (inactive).
Regarding `C#Cc1cccc(Nc2ncnc3cc4c(cc23)OCCOCCOCCO4)c1` [ICOTINIB], the Kd in assay [1], in assay [2], in assay [3], in assay [4], in assay [5] and in assay [6] was > 30 µM (inactive) each time. In addition, the Kd in assay [7] is > 30 µM (inactive).
Regarding `CC1(COc2ccc3c(c2)ncn3-c2ccc3cccc(N4CCC(N)CC4)c3n2)COC1` [CRENOLANIB], the Kd in assay [1] is > 30 µM (inactive); in assay [2], > 30 µM (inactive); in assay [3], > 30 µM (inactive); in assay [4], > 30 µM (inactive); in assay [5], 0.029 µM; in assay [6] it was 0.007 µM. Moreover, in assay [7], the Kd was > 30 µM (inactive).
For the compound `Cn1c(=O)c(F)c(Nc2ccc(I)cc2F)c2c(=O)n(C[C@@H](O)CO)cnc21` [TAK-733], the Kd in assay [1], in assay [2], in assay [3], in assay [4], in assay [5] and in assay [6] was > 30 µM (inactive) throughout. In assay [7], the Kd was > 30 µM (inactive).
For `c1cc(OCCN2CCCCC2)cc(-c2n[nH]c3ccc(-c4nc[nH]n4)cc23)c1` [CC-401], the Kd in assay [1], in assay [2], in assay [3], in assay [4], in assay [5] and in assay [7] was > 30 µM (inactive) throughout.
As to `COc1cc2ncnc(Nc3ccc(O)cc3)c2cc1OC` [WHI-P131], the Kd in assay [1], in assay [2], in assay [3], in assay [4], in assay [5] and in assay [6] was > 30 µM (inactive) throughout.
